The text below walks through data of patent publication US7348427B2, “Antipathogenic benzamide compounds” (Genesoft Pharmaceuticals, Inc., priority 2001, dated 2008).

Assay [1] has as its system Bacillus cereus (ATCC 11778). The assay is described as follows: MIC, NCCLS broth microdilution assay. Particulars: A = B. cereus ATCC 11778. Type of assay: cell-based. An outline of the steps:
(§1)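 Activity is measured as MIC in microtiter broth microdilution under NCCLS M7-A4, M11-A4 and M27-T guidance, with the yeast tested by the method in Murray's Manual of Clinical Microbiology.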
For orientation: In broth dilution the organism is exposed to a series of concentrations in liquid medium.

The subject of assay [2] is Staphylococcus aureus (ATCC 13709, a methicillin sensitive strain (MSSA)). Nature of the assay: MIC, NCCLS broth microdilution assay. Type of assay: cell-based. Particulars: E = S. aureus ATCC 13709. An outline of the steps:
as §1

In assay [3] the test system is Staphylococcus aureus (ATCC 27660, a methicillin resistant strain (MRSA)). The assay is described as follows: MIC, NCCLS broth microdilution assay. It counts as cell-based. Particulars: F = S. aureus ATCC 27660. An outline of the steps:
as §1

In assay [4] the test system is Candida albicans (ATCC 38247). The assay is described as follows: Antifungal MIC assay. It counts as cell-based. To be noted: B = C. albicans ATCC 38247. An outline of the steps:
as §1

The subject of the next assay is E. faecalis ATCC 29212. Nature of the assay: MIC, NCCLS broth microdilution assay. It counts as cell-based, Enterococcus faecalis. To be noted: C = E. faecalis ATCC 29212. An outline of the steps: (§2)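 MICs were determined by NCCLS broth microdilution following documents M7-A4 and M11-A4 (1997).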
The next assay deals with S. pneumoniae ATCC 49619. Nature of the assay: MIC, NCCLS broth microdilution assay. Type of assay: cell-based, Streptococcus pneumoniae. Particulars: H = S. pneumoniae ATCC 49619. An outline of the steps:
as §2

A value given as a limit tells only on which side of the number the result lay.

`CCSCCCn1cc(NC(=O)c2cc(NC(=O)c3ccc(Cl)cc3SCC)cn2C)cc1C(=O)Nc1cc(C(=O)Nc2cc(C(=O)NCCN3CCOCC3)n(C)c2)n(C)c1` [Compound C-20]: the “Minimum Inhibitory Concentration (MIC)” value in assay [1] was over 32 µg/mL; in assay [2], over 32 µg/mL; in assay [3], over 32 µg/mL; in assay [4] it was over 32 µg/mL; in the assay on E. faecalis ATCC 29212, over 32 µg/mL; in the assay with S. pneumoniae ATCC 49619, “+++ (+++ = MIC ≦ 4)”.
Take `Cc1cc(NC(=O)c2cc(NC(=O)c3cc(NC(=O)c4ccc(Cl)cc4NCCN4CCOCC4)cn3C)c[nH]2)sn1` [Compound C-21]: the “Minimum Inhibitory Concentration (MIC)” value was “++ (++ = 4 < MIC < 12)” in assay [1]; “++ (++ = 4 < MIC < 12)” in assay [2]; “+++ (+++ = MIC ≦ 4)” in assay [3]; over 32 µg/mL in assay [4]; “++ (++ = 4 < MIC < 12)” with E. faecalis ATCC 29212; “+++ (+++ = MIC ≦ 4)” with S. pneumoniae ATCC 49619.
Take `Cc1cc(NC(=O)c2cc(NC(=O)c3cc(NC(=O)c4ccc(Cl)cc4NCCN4CCCCC4)cn3C)c[nH]2)sn1` [Compound C-22]: the “Minimum Inhibitory Concentration (MIC)” value in assay [1] was “+++ (+++ = MIC ≦ 4)”; in assay [2] it was “+++ (+++ = MIC ≦ 4)”; in assay [3], “+++ (+++ = MIC ≦ 4)”; in assay [4] it was “+ (+ = 12 ≦ MIC ≦ 32)”; in the assay with E. faecalis ATCC 29212, “+++ (+++ = MIC ≦ 4)”; in the assay on S. pneumoniae ATCC 49619, “+++ (+++ = MIC ≦ 4)”.
With `Cc1cc(NC(=O)c2cc(NC(=O)c3cc(NC(=O)c4ccc(Cl)cc4NCCN4CCCC4)cn3C)c[nH]2)sn1` [Compound C-23], the “Minimum Inhibitory Concentration (MIC)” value in assay [1] is “+++ (+++ = MIC ≦ 4)”; in assay [2], “+++ (+++ = MIC ≦ 4)”; in assay [3], “+++ (+++ = MIC ≦ 4)”; in assay [4], over 32 µg/mL; in the assay with E. faecalis ATCC 29212, “++ (++ = 4 < MIC < 12)”; in the assay on S. pneumoniae ATCC 49619, “+++ (+++ = MIC ≦ 4)”.
In the case of `Cc1cc(NC(=O)c2cc(NC(=O)c3cc(NC(=O)c4ccc(Cl)cc4NCCN4CCSCC4)cn3C)c[nH]2)sn1` [Compound C-24], the “Minimum Inhibitory Concentration (MIC)” value is “++ (++ = 4 < MIC < 12)” in assay [1]; “++ (++ = 4 < MIC < 12)” in assay [2]; “+++ (+++ = MIC ≦ 4)” in assay [3]; over 32 µg/mL in assay [4]; “++ (++ = 4 < MIC < 12)” in the assay with E. faecalis ATCC 29212; “+++ (+++ = MIC ≦ 4)” with S. pneumoniae ATCC 49619.
As to `Cc1cc(NC(=O)c2cc(NC(=O)c3cc(NC(=O)c4ccc(Cl)cc4NCCCN4CCOCC4)cn3C)c[nH]2)sn1` [Compound C-25], the “Minimum Inhibitory Concentration (MIC)” value was over 32 µg/mL in assay [1]; over 32 µg/mL in assay [2]; over 32 µg/mL in assay [3]; over 32 µg/mL in assay [4]; over 32 µg/mL with E. faecalis ATCC 29212; “+++ (+++ = MIC ≦ 4)” with S. pneumoniae ATCC 49619.
For `Cc1cc(NC(=O)c2cc(NC(=O)c3cc(NC(=O)c4ccc(F)cc4F)cn3C)cn2CCN2CCOCC2)sn1` [Compound D-1], the “Minimum Inhibitory Concentration (MIC)” value is “+++ (+++ = MIC ≦ 4)” in assay [1]; “+++ (+++ = MIC ≦ 4)” in assay [2]; “+++ (+++ = MIC ≦ 4)” in assay [3]; over 32 µg/mL in assay [4]; “+++ (+++ = MIC ≦ 4)” in the assay on E. faecalis ATCC 29212; “+++ (+++ = MIC ≦ 4)” in the assay on S. pneumoniae ATCC 49619.
As to `Cn1cc(NC(=O)c2ccc(F)cc2F)cc1C(=O)Nc1cc(C(=O)Nc2cc(C(=O)NCCN3CCCCC3)n(CCN3CCCCC3)c2)n(C)c1` [Compound D-5], the “Minimum Inhibitory Concentration (MIC)” value in assay [1] is “+++ (+++ = MIC ≦ 4)”; in assay [2] it was “+++ (+++ = MIC ≦ 4)”; in assay [3], “+++ (+++ = MIC ≦ 4)”; in assay [4], over 32 µg/mL; in the assay with E. faecalis ATCC 29212, “+++ (+++ = MIC ≦ 4)”; in the assay with S. pneumoniae ATCC 49619, “+++ (+++ = MIC ≦ 4)”.
With `Cc1cc(NC(=O)c2cc(NC(=O)c3cc(NC(=O)c4ccc(F)cc4F)cn3C)cn2CCC[N+](C)(C)C)sn1` [Compound D-6], the “Minimum Inhibitory Concentration (MIC)” value was “+ (+ = 12 ≦ MIC ≦ 32)” in assay [1]; over 32 µg/mL in assay [2]; “+ (+ = 12 ≦ MIC ≦ 32)” in assay [3]; over 32 µg/mL in assay [4]; “+ (+ = 12 ≦ MIC ≦ 32)” with E. faecalis ATCC 29212; “+++ (+++ = MIC ≦ 4)” in the assay with S. pneumoniae ATCC 49619.
Regarding `CN(C)CCCn1cc(NC(=O)c2cc(NC(=O)c3ccc(F)cc3F)cn2C)cc1C(=O)Nc1cc(C(=O)NCCN2CCOCC2)n(C)c1` [Compound D-7], the “Minimum Inhibitory Concentration (MIC)” value in assay [1] is “+++ (+++ = MIC ≦ 4)”; in assay [2], “+++ (+++ = MIC ≦ 4)”; in assay [3], “+++ (+++ = MIC ≦ 4)”; in assay [4], “+ (+ = 12 ≦ MIC ≦ 32)”; with E. faecalis ATCC 29212, “+++ (+++ = MIC ≦ 4)”; in the assay with S. pneumoniae ATCC 49619 it was “+++ (+++ = MIC ≦ 4)”.
Turning to `Cn1cc(NC(=O)c2cc(NC(=O)c3ccc(Cl)cc3F)c[nH]2)cc1C(=O)Nc1cc(C(=O)NCCN2CCCCC2)n(CCN2CCCCC2)c1` [Compound D-14], the “Minimum Inhibitory Concentration (MIC)” value in assay [1] is “+++ (+++ = MIC ≦ 4)”; in assay [2], “+++ (+++ = MIC ≦ 4)”; in assay [3], “+++ (+++ = MIC ≦ 4)”; in assay [4] it was over 32 µg/mL; in the assay on E. faecalis ATCC 29212, “+++ (+++ = MIC ≦ 4)”; in the assay on S. pneumoniae ATCC 49619, “+++ (+++ = MIC ≦ 4)”.
As to `Cc1cc(NC(=O)c2cc(NC(=O)c3cc(NC(=O)c4ccc(Cl)cc4F)cn3CCCN(C)C)c[nH]2)sn1` [Compound D-15], the “Minimum Inhibitory Concentration (MIC)” value (in assay [1]; in assay [2]; in assay [3]; in assay [4]; with E. faecalis ATCC 29212; in the assay with S. pneumoniae ATCC 49619) was “+++ (+++ = MIC ≦ 4)” each time.
Take `Cc1cc(NC(=O)c2cc(NC(=O)c3cc(NC(=O)c4ccc(Cl)cc4F)c[nH]3)cn2CCC[N+](C)(C)C)sn1` [Compound D-23]: the “Minimum Inhibitory Concentration (MIC)” value in assay [1] is reported as “+++ (+++ = MIC ≦ 4)”; in assay [2] it was “+++ (+++ = MIC ≦ 4)”; in assay [3] it was “+++ (+++ = MIC ≦ 4)”; in assay [4], “++ (++ = 4 < MIC < 12)”; with E. faecalis ATCC 29212, “+++ (+++ = MIC ≦ 4)”; in the assay with S. pneumoniae ATCC 49619 it was “+++ (+++ = MIC ≦ 4)”.
`Cc1cc(NC(=O)c2cc(NC(=O)c3cc(NC(=O)c4ccc(Cl)cc4F)cn3CCCN3CCC(O)CC3)c[nH]2)sn1` [Compound D-24]: the “Minimum Inhibitory Concentration (MIC)” value (in assay [1]; in assay [2]; in assay [3]; in assay [4]; with E. faecalis ATCC 29212; in the assay on S. pneumoniae ATCC 49619) was “+++ (+++ = MIC ≦ 4)” throughout.
Take `CN(C)CCCn1cc(NC(=O)c2cc(NC(=O)c3ccc(Cl)cc3F)cn2C)cc1C(=O)Nc1cc(C(=O)NCCN2CCOCC2)n(C)c1` [Compound D-25]: the “Minimum Inhibitory Concentration (MIC)” value in assay [1] is listed as “+++ (+++ = MIC ≦ 4)”; in assay [2], “+++ (+++ = MIC ≦ 4)”; in assay [3], “+++ (+++ = MIC ≦ 4)”; in assay [4], “+ (+ = 12 ≦ MIC ≦ 32)”; with E. faecalis ATCC 29212, “+++ (+++ = MIC ≦ 4)”; with S. pneumoniae ATCC 49619 it was “+++ (+++ = MIC ≦ 4)”.
As to `CN(C)CCCn1cc(NC(=O)c2cc(NC(=O)c3ccc(Cl)cc3F)c[nH]2)cc1C(=O)Nc1cc(C(=O)NCCN2CCOCC2)n(C)c1` [Compound D-26], the “Minimum Inhibitory Concentration (MIC)” value in assay [1] was “+++ (+++ = MIC ≦ 4)”; in assay [2], “+++ (+++ = MIC ≦ 4)”; in assay [3] it was “+++ (+++ = MIC ≦ 4)”; in assay [4], “+ (+ = 12 ≦ MIC ≦ 32)”; with E. faecalis ATCC 29212, “+++ (+++ = MIC ≦ 4)”; with S. pneumoniae ATCC 49619, “+++ (+++ = MIC ≦ 4)”.
Take `Cn1cc(NC(=O)c2cc(NC(=O)c3cc(NC(=O)c4ccc(Cl)cc4)cn3C)cn2CCN2CCOCC2)cc1C(=O)NCCN1CCOCC1` [Compound D-27]: the “Minimum Inhibitory Concentration (MIC)” value is “++ (++ = 4 < MIC < 12)” in assay [1]; “+ (+ = 12 ≦ MIC ≦ 32)” in assay [2]; “+ (+ = 12 ≦ MIC ≦ 32)” in assay [3]; over 32 µg/mL in assay [4]; “+++ (+++ = MIC ≦ 4)” in the assay with E. faecalis ATCC 29212; “+++ (+++ = MIC ≦ 4)” in the assay with S. pneumoniae ATCC 49619.
